Laboratory results reported in ChEMBL document CHEMBL1135829, “Investigations on estrogen receptor binding. The estrogenic, antiestrogenic, and cytotoxic properties of C2-alkyl-substituted 1,1-bis(4-hydroxyphenyl)-2-phenylethenes” (J Med Chem, 2002).
One block for each compound: values may come before it.

Columns and labels:
MCF-7 (Homo sapiens) [1] = test: Cytotoxicity against MCF-7 cells at 5 uM.
Estrogen receptor = molecular target: T1, Estrogen receptor (Homo sapiens, UniProt P03372); test: Antiestrogenic activity in MCF-7-2a cells as concentration required to reduce estradiol effect by 50%; format: functional, cell-based
T1 sequence (P03372 whole entry): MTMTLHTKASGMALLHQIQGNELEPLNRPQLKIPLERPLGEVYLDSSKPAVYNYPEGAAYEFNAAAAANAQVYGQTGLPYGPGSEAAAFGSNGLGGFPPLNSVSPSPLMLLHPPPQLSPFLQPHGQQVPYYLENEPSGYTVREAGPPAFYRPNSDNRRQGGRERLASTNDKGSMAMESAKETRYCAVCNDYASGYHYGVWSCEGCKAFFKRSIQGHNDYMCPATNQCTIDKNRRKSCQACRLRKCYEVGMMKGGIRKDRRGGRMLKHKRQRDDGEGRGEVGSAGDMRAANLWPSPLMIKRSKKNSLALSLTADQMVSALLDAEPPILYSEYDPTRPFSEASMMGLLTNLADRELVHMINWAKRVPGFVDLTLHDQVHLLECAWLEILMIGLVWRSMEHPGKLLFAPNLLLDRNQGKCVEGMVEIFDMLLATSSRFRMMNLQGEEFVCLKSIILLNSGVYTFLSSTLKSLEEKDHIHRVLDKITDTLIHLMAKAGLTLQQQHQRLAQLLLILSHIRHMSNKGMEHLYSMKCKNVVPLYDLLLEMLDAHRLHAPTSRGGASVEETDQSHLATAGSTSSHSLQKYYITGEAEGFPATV

MCF-7 (Homo sapiens) [2] = test: Antitumor activity against MCF-7 cells at 5 uM.

- IC50 (Estrogen receptor): 15 nM
Structure (SMILES): CCC(=C(c1ccc(O)cc1)c1ccc(O)cc1)c1ccccc1
- Cytotoxicity (MCF-7 (Homo sapiens) [1]): 99%

- IC50 (Estrogen receptor): 30 nM
Structure (SMILES): CC(=C(c1ccc(O)cc1)c1ccc(O)cc1)c1ccccc1
- Cytotoxicity (MCF-7 (Homo sapiens) [1]): 90%

- IC50 (Estrogen receptor): 500 nM
Structure (SMILES): CCCCC(=C(c1ccc(O)cc1)c1ccc(O)cc1)c1ccccc1
- Cytotoxicity (MCF-7 (Homo sapiens) [2]): 87%

- IC50 (Estrogen receptor): 50 nM
Structure (SMILES): CCCC(=C(c1ccc(O)cc1)c1ccc(O)cc1)c1ccccc1
- Cytotoxicity (MCF-7 (Homo sapiens) [1]): 98%

- IC50 (Estrogen receptor): 150 nM
Structure (SMILES): Oc1ccc(C(=Cc2ccccc2)c2ccc(O)cc2)cc1
- Cytotoxicity (MCF-7 (Homo sapiens) [2]): 92%

More lines, now with the values behind:

Structure (SMILES): Oc1ccc(C(=C(CC(F)(F)F)c2ccccc2)c2ccc(O)cc2)cc1
- Cytotoxicity (MCF-7 (Homo sapiens) [1]): 68%
- IC50 (Estrogen receptor): 9 nM

Structure (SMILES): CC/C(=C(\c1ccccc1)c1ccc(O)cc1)c1ccccc1
- IC50 (Estrogen receptor): 7 nM
- Cytotoxicity (MCF-7 (Homo sapiens) [2]): 25%

Structure (SMILES): CC/C(=C(\c1ccccc1)c1ccc(OCCN(C)C)cc1)c1ccccc1 [TAMOXIFEN]
- Cytotoxicity (MCF-7 (Homo sapiens) [2]): 15%
